“And” between values parts separate entries of the source, which are not always exact repeats. Identical values can stand only once.
Experiments:
[1] = 101 kPa, Liquid; for speed of sound: Linear variable-path acoustic interferometer; for mass density: Pycnometric method
[2] = xn = mol fraction of the nth substance listed; details: 101 kPa, Liquid; for speed of sound: Linear variable-path acoustic interferometer; for mass density: Pycnometric method

CCNc1ccccc1 [N-ethylaminobenzene]
[1]
Details	mass density [kg/m3]	speed of sound [m/s]
303.15 K	951.9	1497
313.15 K	944.3	1462
323.15 K	935.9	1431

CCNc1ccccc1 [N-ethylaminobenzene] + C1CCOC1
[2]
Details	mass density, 303.15 K [kg/m3]	mass density, 313.15 K [kg/m3]	mass density, 323.15 K [kg/m3]	speed of sound, 303.15 K [m/s]	speed of sound, 313.15 K [m/s]	speed of sound, 323.15 K [m/s]
x2 = 0	951.9	944.3	935.9	1497	1462	1431
x2 = 0.0904	947.8	940.8	932.8	1482	1450	1420
x2 = 0.1892	943.8	936.7	929.1	1469	1435	1404
x2 = 0.2849	939.5	932.4	925.2	1452	1418	1388
x2 = 0.3819	934.5	927.6	920.6	1433	1399	1367
x2 = 0.4674	929.3	922.6	915.7	1414	1379	1346
x2 = 0.5758	921.9	915.2	908.1	1387	1351	1317
x2 = 0.6778	913.1	906.4	899.5	1360	1323	1286
x2 = 0.7876	902.1	895.4	887.7	1326	1287	1250
x2 = 0.8903	890.8	882.8	874.2	1291	1251	1215

CNc1ccccc1 [N-methylaniline]
[1]
Details	mass density [kg/m3]	speed of sound [m/s]
303.15 K	978.2	1548
313.15 K	969.8	1512
323.15 K	961	1477

CNc1ccccc1 [N-methylaniline] + C1CCOC1
[2]
Details	mass density, 303.15 K [kg/m3]	mass density, 313.15 K [kg/m3]	mass density, 323.15 K [kg/m3]	speed of sound, 303.15 K [m/s]	speed of sound, 313.15 K [m/s]	speed of sound, 323.15 K [m/s]
x2 = 0	978.2	969.8	961	1548	1512	1477
x2 = 0.0831	973.1	964.9	956.6	1528	1493	1459
x2 = 0.1864	966	958.3	949.9	1502	1466	1433
x2 = 0.2813	959.1	951.4	943.4	1478	1442	1407
x2 = 0.3782	951.5	944	935.8	1453	1416	1381
x2 = 0.4714	943.5	936	927.4	1428	1390	1354
x2 = 0.5746	933.2	926	916.9	1396	1358	1322
x2 = 0.6956	919.4	912.2	902.6	1357	1318	1282
x2 = 0.7823	908.2	900.8	891.1	1329	1289	1252
x2 = 0.8882	893.4	885.7	875.8	1293	1252	1213

Nc1ccccc1 [aniline]
[1]
Details	mass density [kg/m3]	speed of sound [m/s]
303.15 K	1012.8	1615
313.15 K	1004.9	1583
323.15 K	998.4	1558

Nc1ccccc1 [aniline] + C1CCOC1
[2]
Details	mass density, 303.15 K [kg/m3]	mass density, 313.15 K [kg/m3]	mass density, 323.15 K [kg/m3]	speed of sound, 303.15 K [m/s]	speed of sound, 313.15 K [m/s]	speed of sound, 323.15 K [m/s]
x2 = 0	1012.8	1004.9	998.4	1615	1583	1558
x2 = 0.087	1004.4	997.5	991.5	1592	1561	1537
x2 = 0.1803	994.8	988.2	981.6	1565	1531	1510
x2 = 0.2735	984.8	978.5	971.8	1535	1500	1478
x2 = 0.3573	975.4	969.4	962.4	1509	1473	1450
x2 = 0.4556	964.1	957.8	951.6	1476	1440	1417
x2 = 0.5638	950.5	943.9	937.9	1438	1402	1379
x2 = 0.6708	935	928.7	922.6	1393	1359	1334
x2 = 0.8169	910.1	904	898.5	1334	1299	1268
x2 = 0.8812	898.7	892.2	885	1306	1267	1237

C1CCOC1 [tetrahydrofuran]
[1]
Details	mass density	speed of sound [m/s]
303.15 K	877.3 kg/m3	1256
313.15 K	867.2 kg/m3	1212
323.15 K	856.6 kg/m3 and 857.1 kg/m3	1171

C1CCOC1 [tetrahydrofuran] + CCNc1ccccc1
[2], x1 = 1
Details	mass density [kg/m3]	speed of sound [m/s]
303.15 K	877.3	1256
313.15 K	867.2	1212
323.15 K	857.1	1171

C1CCOC1 [tetrahydrofuran] + CNc1ccccc1
[2], x1 = 1
Details	mass density [kg/m3]	speed of sound [m/s]
303.15 K	877.3	1256
313.15 K	867.2	1212
323.15 K	856.6	1171

C1CCOC1 [tetrahydrofuran] + Nc1ccccc1
[2], x1 = 1
Details	mass density [kg/m3]	speed of sound [m/s]
303.15 K	877.3	1256
313.15 K	867.2	1212
323.15 K	856.6	1171
